Measurements taken from patent US8445428B2, “Plant derived antibiotic peptide rich in glycine” (Uniao Brasiliense de Educacao e Cultura—UBEC, priority 2006, dated 2013).

What was measured:
Type in all cases: cell-based
[1] = system: Staphylococcus aureus; assay: Preliminary bioassays against gram-positive bacteria; details: such as Staphylococcus aureus
[2] = system: Klebsiella sp.; assay: Bioassay against bacteria: growth in LB medium, absorbance at 600 nm; details: micromolar concentrations, 37° C. for 4 hours
Experimental: (§1) The bioassays against bacteria were performed using 1.0 ml of Luria Bertani medium (NaCl 10 g.l^−1, yeast extract 5 g.l^−1 and bactopeptone […]). Two species, namely Klebsiella sp. and Proteus sp., were used, with the protein under test was restricted to micromolar concentrations. The bacteria grew in the LB medium during 16-18 hours at 37° C. before being evaluated with the proteins. Distilled water was used as negative control and chloramphenicol 40 μg.ml^−1 as positive control. Protein from guava seeds was incubated against the bacteria at 37° C. for 4 hours. Bacterial growth was assessed by an absorbance reading at 600 nm at each hour of the experiment. Each experiment was performed in triplicate.

[3] = system: Proteus sp.; assay: as above; details: micromolar concentrations, 37° C. for 4 hours
Experimental: as §1

RESPSSRMECYEQAERYGYGGYGGGRYGGGYGSGRGQPVGQGVERSHDDNRNQPR (SEQ ID NO: 1) (RESPSSRMECYEQAERYGYGGYGGGRYGGGYGSGRGQPVGQGVERSHDDNRNQPR; listed as Psidium guajava) [Pg-AMP1, glycine rich anti-microbial peptide of 55 amino acids, about 5 kDa, purified from guava (Psidium guajava) seeds]
inhibitory activity [1]: did not reveal any inhibitory activity
inhibitory activity [2]: 90%
inhibitory activity [3]: 30%
